Assay results: patent US20240294543A1, “CYCLOHEPTA-THIENO-DIAZEPINE DERIVATIVES AS GABA A GAMMA1 PAM” (Hoffmann-La Roche Inc., priority 2021, published 2024)
pKi: −log10 of the molar value.

What was measured:
h-GABA-A α2β2γ1 = h-GABA-A α2β2γ1 (Homo sapiens (Human), UniProt P47869+Q8N1C3); assay: Two-electrode voltage clamp electrophysiology in Xenopus oocytes expressing GABAA receptors; assay type: cell-based; conditions: for Efficacy (GABA) %: % modulation of GABA EC20 = 100*(Fold increase−1), compound at about 30-fold its Ki α2β2γ1; for Fold increase h-GABA-A α2β2γ1 oocyte @ 30-fold Ki: Xenopus oocytes, GABA EC20, compound at about 30-fold its Ki α2β2γ1
Procedure, shortened: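 Xenopus oocytes injected with receptor subunit RNA and recorded 3–5 days later by two-electrode voltage clamp at −80 mV, room temperature, pH 7.4. GABA applied at EC20 for 1.5 min, with and without test compound. Efficacy = extremum of the point-by-point ratio of the two responses, expressed as % modulation of GABA EC20; ≥3 oocytes per concentration.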

[1] = target: human GABAA α5β2γ1 receptor (Homo sapiens (Human), UniProt P31644+Q8N1C3); assay: Radioligand binding assay, competition for [3H]RO7239181, γ1-containing GABAA subtypes

Row | SMILES | Efficacy (GABA) % (h-GABA-A α2β2γ1) [%] | Fold increase h-GABA-A α2β2γ1 oocyte @ 30-fold Ki (h-GABA-A α2β2γ1) | pKi [1]
1 | C[C@@H]1N=C(c2c(F)cccc2F)c2c(sc3c2COC[C@H](C)O3)-n2nc(C(=O)N3CC(OC(C)(C)C)C3)nc21 [Example 41, (3-tert-butoxyazetidin-1-yl)-[(7S,15S)-9-(2,6-difluorophenyl)-7,15-dimethyl-13,16-dioxa-18-thia-2,3,5,8-tetrazatetracyclo[8.8.0.02,6.011,17]octadeca-1(10),3,5,8,11(17)-pentaen-4-yl]methanone] | 167 | 2.67 | 8.21
2 | CCc1nnc2n1-c1sc3c(c1C(c1c(F)cccc1F)=N[C@H]2C)COCCO3 [Example 42, (7S)-9-(2,6-difluorophenyl)-3-ethyl-7-methyl-13,16-dioxa-18-thia-2,4,5,8-tetrazatetracyclo[8.8.0.02,6.011,17]octadeca-1(10),3,5,8,11(17)-pentaene] | 137 | 2.37 | 8.54
3 | C[C@@H]1N=C(c2c(F)cccc2F)c2c(sc3c2COCCO3)-n2c(C3CC3)nnc21 [Example 43, (7S)-3-cyclopropyl-9-(2,6-difluorophenyl)-7-methyl-13,16-dioxa-18-thia-2,4,5,8-tetrazatetracyclo[8.8.0.02,6.011,17]octadeca-1(10),3,5,8,11(17)-pentaene] | 94 | 1.94 | 8.35
4 | CC(C)c1nnc2n1-c1sc3c(c1C(c1c(F)cccc1F)=N[C@H]2C)COCCO3 [Example 44, (7S)-9-(2,6-difluorophenyl)-3-isopropyl-7-methyl-13,16-dioxa-18-thia-2,4,5,8-tetrazatetracyclo[8.8.0.02,6.011,17]octadeca-1(10),3,5,8,11(17)-pentaene] | 116 | 2.16 | 8.31
5 | C[C@@H]1N=C(c2c(F)cccc2F)c2c(sc3c2COCCO3)-n2nc(C(=O)NCC(C)(C)O)nc21 [Example 45, (7S)-9-(2,6-difluorophenyl)-N-(2-hydroxy-2-methyl-propyl)-7-methyl-13,16-dioxa-18-thia-2,3,5,8-tetrazatetracyclo[8.8.0.02,6.011,17]octadeca-1(10),3,5,8,11(17)-pentaene-4-carboxamide] | 101 | 2.01 | 8.49
6 | C[C@@H]1N=C(c2c(F)cccc2F)c2c(sc3c2COCCO3)-n2nc(C(=O)NC[C@@](C)(O)C(F)(F)F)nc21 [Example 46, (7S)-9-(2,6-difluorophenyl)-7-methyl-N-[(2R)-3,3,3-trifluoro-2-hydroxy-2-methyl-propyl]-13,16-dioxa-18-thia-2,3,5,8-tetrazatetracyclo[8.8.0.02,6.011,17]octadeca-1(10),3,5,8,11(17)-pentaene-4-carboxamide] | 84 | 1.84 | 8.45
7 | C[C@@H]1N=C(c2c(F)cccc2F)c2c(sc3c2COCCO3)-n2nc(C(=O)NC[C@](C)(O)C(F)(F)F)nc21 [Example 47, (7S)-9-(2,6-difluorophenyl)-7-methyl-N-[(2S)-3,3,3-trifluoro-2-hydroxy-2-methyl-propyl]-13,16-dioxa-18-thia-2,3,5,8-tetrazatetracyclo[8.8.0.02,6.011,17]octadeca-1(10),3,5,8,11(17)-pentaene-4-carboxamide] | 89 | 1.89 | 8.35
8 | C[C@@H]1N=C(c2c(F)cccc2F)c2c(sc3c2COCCO3)-n2c(C(F)F)nnc21 [Example 48, (7S)-3-(difluoromethyl)-9-(2,6-difluorophenyl)-7-methyl-13,16-dioxa-18-thia-2,4,5,8-tetrazatetracyclo[8.8.0.02,6.011,17]octadeca-1(10),3,5,8,11(17)-pentaene] | 144 | 2.44 | 7.87
